Data published in ChEMBL document CHEMBL3885861, “Open TG-GATES”.

Species: Rattus norvegicus
Experiment: Open TG-GATES - Regimen: Daily Repeat
Assay type: toxicity, organism-based, Sprague-Dawley
Parameters: regimen Daily Repeat, gender Male, age 6 weeks
Settings: in vivo, po, 0 mg/kg, route gavage, dose level Control; for APTT / Bas / Eos / Fbg / Hb / Ht / Lym / MCH / MCHC / MCV / Mono / Neu / PT / Plat / RBC / Ret / WBC: tissue Blood; for KIDNEY_L / KIDNEY_R / KIDNEY_TOTAL: tissue Kidney; for LIVER: tissue Liver; for A/G / ALP / ALT / AST / BUN / CRE / Ca / Cl / DBIL / GLC / IP / K / LDH / Na / PL / RALB / TBIL / TC / TG / TP / gamma-GTP: tissue Plasma

CC(=O)[C@@]1(O)CC[C@H]2[C@@H]3C=C(Cl)C4=CC(=O)CC[C@]4(C)[C@H]3CC[C@@]21C [CHLORMADINONE]
TERMINAL_BW (72 h, time 3 day): 240.6 g
APTT (72 h, time 3 day): 23.6 s
Bas (72 h, time 3 day): 0%
Eos (72 h, time 3 day): 1%
Fbg (72 h, time 3 day): 295 mg/dL
Hb (72 h, time 3 day): 13.3 g/dL
Ht (72 h, time 3 day): 40.9%
Lym (72 h, time 3 day): 77.6%
MCH (72 h, time 3 day): 20.3 pg
MCHC (72 h, time 3 day): 32.6%
MCV (72 h, time 3 day): 62.4 fL
Mono (72 h, time 3 day): 2.6%
Neu (72 h, time 3 day): 18.4%
PT (72 h, time 3 day): 15.6 s
Plat (72 h, time 3 day): 116.7 x10_4/uL
RBC (72 h, time 3 day): 656 x10_4/ul
Ret (72 h, time 3 day): 6.4%
WBC (72 h, time 3 day): 122.2 x10_2/uL
KIDNEY_L (72 h, time 3 day): 1 g
KIDNEY_R (72 h, time 3 day): 1 g
KIDNEY_TOTAL (72 h, time 3 day): 2 g
LIVER (72 h, time 3 day): 10.8 g
A/G (72 h, time 3 day): 1.2
ALP (72 h, time 3 day): 1828 IU/L
ALT (72 h, time 3 day): 43.8 IU/L
AST (72 h, time 3 day): 82 IU/L
BUN (72 h, time 3 day): 18.8 mg/dL
CRE (72 h, time 3 day): 0.2 mg/dL
Ca (72 h, time 3 day): 10.8 mg/dL
Cl (72 h, time 3 day): 105.8 meq/L
DBIL (72 h, time 3 day): 0 mg/dL
GLC (72 h, time 3 day): 190.6 mg/dL
IP (72 h, time 3 day): 7 mg/dL
K (72 h, time 3 day): 4.3 meq/L
LDH (72 h, time 3 day): 300.6 IU/L
Na (72 h, time 3 day): 141.6 meq/L
PL (72 h, time 3 day): 151.2 mg/dL
RALB (72 h, time 3 day): 3 g/dL
TBIL (72 h, time 3 day): 0.008 mg/dL
TC (72 h, time 3 day): 72.2 mg/dL
TG (72 h, time 3 day): 114.8 mg/dL
TP (72 h, time 3 day): 5.4 g/dL
gamma-GTP (72 h, time 3 day): 1.4 IU/L
TERMINAL_BW ([…], time 7 day): 267.1 g
TERMINAL_BW ([…], time 14 day): 325.5 g
TERMINAL_BW ([…], time 28 day): 410.9 g
APTT ([…], time 7 day): 24.1 s
Bas ([…], time 7 day): 0%
Eos ([…], time 7 day): 0.8%
Fbg ([…], time 7 day): 337 mg/dL
Hb ([…], time 7 day): 13.8 g/dL
Ht ([…], time 7 day): 41.5%
Lym ([…], time 7 day): 80.8%
MCH ([…], time 7 day): 20.3 pg
MCHC ([…], time 7 day): 33.1%
MCV ([…], time 7 day): 61.1 fL
Mono ([…], time 7 day): 2.2%
Neu ([…], time 7 day): 15.2%
PT ([…], time 7 day): 15.6 s
Plat ([…], time 7 day): 112.3 x10_4/uL
RBC ([…], time 7 day): 680 x10_4/ul
Ret ([…], time 7 day): 5.6%
WBC ([…], time 7 day): 129.9 x10_2/uL
APTT ([…], time 14 day): 23.6 s
Bas ([…], time 14 day): 0%
Eos ([…], time 14 day): 0.8%
Fbg ([…], time 14 day): 320.6 mg/dL
Hb ([…], time 14 day): 14 g/dL
Ht ([…], time 14 day): 41.9%
Lym ([…], time 14 day): 80.8%
MCH ([…], time 14 day): 19.9 pg
MCHC ([…], time 14 day): 33.5%
MCV ([…], time 14 day): 59.5 fL
Mono ([…], time 14 day): 2.2%
Neu ([…], time 14 day): 15.2%
PT ([…], time 14 day): 15.4 s
Plat ([…], time 14 day): 100.4 x10_4/uL
RBC ([…], time 14 day): 704 x10_4/ul
Ret ([…], time 14 day): 5.2%
WBC ([…], time 14 day): 126.8 x10_2/uL
APTT ([…], time 28 day): 24.8 s
Bas ([…], time 28 day): 0%
Eos ([…], time 28 day): 0.8%
Fbg ([…], time 28 day): 325 mg/dL
Hb ([…], time 28 day): 15.2 g/dL
Ht ([…], time 28 day): 44%
Lym ([…], time 28 day): 82.2%
MCH ([…], time 28 day): 19.5 pg
MCHC ([…], time 28 day): 34.4%
MCV ([…], time 28 day): 56.5 fL
Mono ([…], time 28 day): 2%
Neu ([…], time 28 day): 14.2%
PT ([…], time 28 day): 15.5 s
Plat ([…], time 28 day): 100.5 x10_4/uL
RBC ([…], time 28 day): 779 x10_4/ul
Ret ([…], time 28 day): 3%
WBC ([…], time 28 day): 118.3 x10_2/uL
KIDNEY_L ([…], time 7 day): 1.1 g
KIDNEY_R ([…], time 7 day): 1.1 g
KIDNEY_TOTAL ([…], time 7 day): 2.2 g
KIDNEY_L ([…], time 14 day): 1.2 g
KIDNEY_R ([…], time 14 day): 1.2 g
KIDNEY_TOTAL ([…], time 14 day): 2.5 g
KIDNEY_L ([…], time 28 day): 1.4 g
KIDNEY_R ([…], time 28 day): 1.4 g
KIDNEY_TOTAL ([…], time 28 day): 2.9 g
LIVER ([…], time 7 day): 12.3 g
LIVER ([…], time 14 day): 14.3 g
LIVER ([…], time 28 day): 17.2 g
A/G ([…], time 7 day): 1.2
ALP ([…], time 7 day): 1354.8 IU/L
ALT ([…], time 7 day): 39.4 IU/L
AST ([…], time 7 day): 67.8 IU/L
BUN ([…], time 7 day): 18.8 mg/dL
CRE ([…], time 7 day): 0.2 mg/dL
Ca ([…], time 7 day): 10.8 mg/dL
Cl ([…], time 7 day): 105.8 meq/L
DBIL ([…], time 7 day): 0 mg/dL
GLC ([…], time 7 day): 200.8 mg/dL
IP ([…], time 7 day): 7 mg/dL
K ([…], time 7 day): 4.2 meq/L
LDH ([…], time 7 day): 158.4 IU/L
Na ([…], time 7 day): 140.6 meq/L
PL ([…], time 7 day): 147.2 mg/dL
RALB ([…], time 7 day): 3.1 g/dL
TBIL ([…], time 7 day): 0.01 mg/dL
TC ([…], time 7 day): 76 mg/dL
TG ([…], time 7 day): 114.8 mg/dL
TP ([…], time 7 day): 5.7 g/dL
gamma-GTP ([…], time 7 day): 2.2 IU/L
A/G ([…], time 14 day): 1.1
ALP ([…], time 14 day): 1391 IU/L
ALT ([…], time 14 day): 37.4 IU/L
AST ([…], time 14 day): 64.6 IU/L
BUN ([…], time 14 day): 17.6 mg/dL
CRE ([…], time 14 day): 0.2 mg/dL
Ca ([…], time 14 day): 10.6 mg/dL
Cl ([…], time 14 day): 107 meq/L
DBIL ([…], time 14 day): 0 mg/dL
GLC ([…], time 14 day): 188 mg/dL
IP ([…], time 14 day): 6.6 mg/dL
K ([…], time 14 day): 4 meq/L
LDH ([…], time 14 day): 156.6 IU/L
Na ([…], time 14 day): 142.2 meq/L
PL ([…], time 14 day): 137.4 mg/dL
RALB ([…], time 14 day): 3 g/dL
TBIL ([…], time 14 day): 0.016 mg/dL
TC ([…], time 14 day): 69.6 mg/dL
TG ([…], time 14 day): 112.2 mg/dL
TP ([…], time 14 day): 5.7 g/dL
gamma-GTP ([…], time 14 day): 2.2 IU/L
A/G ([…], time 28 day): 1
ALP ([…], time 28 day): 988 IU/L
ALT ([…], time 28 day): 44.4 IU/L
AST ([…], time 28 day): 73.4 IU/L
BUN ([…], time 28 day): 21.6 mg/dL
CRE ([…], time 28 day): 0.2 mg/dL
Ca ([…], time 28 day): 10.6 mg/dL
Cl ([…], time 28 day): 103.8 meq/L
DBIL ([…], time 28 day): 0 mg/dL
GLC ([…], time 28 day): 201.4 mg/dL
IP ([…], time 28 day): 6.6 mg/dL
K ([…], time 28 day): 4.4 meq/L
LDH ([…], time 28 day): 217.4 IU/L
Na ([…], time 28 day): 141.2 meq/L
PL ([…], time 28 day): 131 mg/dL
RALB ([…], time 28 day): 3.1 g/dL
TBIL ([…], time 28 day): 0.01 mg/dL
TC ([…], time 28 day): 63.2 mg/dL
TG ([…], time 28 day): 112.4 mg/dL
TP ([…], time 28 day): 6.3 g/dL
gamma-GTP ([…], time 28 day): 2.2 IU/L
